Assay results published in patent publication US20230398077A1, “SILICASOME NANOCARRIER FOR METAL-BASED DRUG DELIVERY” (The Regents of the University of California, priority 2020, published 2023).

Key:
calreticulin (CRT) = experiment: Surface CRT expression in KPC cells (immunofluorescence, flow cytometry); assay type: cell-based, murine; conditions: 500 μM, 24 h
Protocol: Surface CRT expression was visualized by immunofluorescence (IF) staining using an anti-CRT primary antibody, followed by the incubation with Alex488 conjugated secondary antibody. Briefly, ˜1.5×10^4 KPC cells were seeded into an 8-well confocal chamber slide. After 24 h, the cell culture medium was replaced with fresh medium containing the chemo agents, following which the cells were incubated for another 24 h. The cells were washed twice in cold PBS and fixed with 4% paraformaldehyde (PFA) at room temperature (r.t.) for 15 mins. After fixation, the cells were washed twice with cold PBS and blocked with 1% BSA in PBS for 0.5 h. The cells were incubated with anti-CRT primary antibody (ab2907, 1:200) in 200 μL blocking solution at 4° C. overnight, followed by washing with PBS and staining with secondary antibody (Alex488 conjugated goat anti-rabbit secondary antibody, A-11008, 1:1000) together with the nuclear dye, Hoechst 33342, at r.t. for 1 h. The cells were washed with PBS, then imaged by using a Leica SP8-MD confocal microscope under the 100× objective lens.
Surface CRT expression was measured by flow cytometry as previously described^[24a]. Briefly, 7.5×10^4 KPC cells were seeded into 24-well plates. […] After washing in cold PBS, the cells were assessed in a LSRII flow cytometer (BD Biosciences). […]

HMGB1 = HMGB1 release from KPC cells (ELISA); assay type: cell-based, murine; conditions: 500 μM, 24 h
Protocol: Surface CRT expression was measured by flow cytometry as previously described^[24a]. Briefly, 7.5×10^4 KPC cells were seeded into 24-well plates. After cell attachment, KPC cells were treated with free oxaliplatin and DACHPt (500 μM), for 24 h. The loosely attached cells were combined with trypsin-treated at adherent cells. The cells were washed in cold PBS and then stained on ice with a primary anti-CRT antibody (Abcam, ab2907, 1:140) in 200 μL BD staining buffer for 0.5 h. The cells were washed in cold PBS and stained with an […] secondary antibody (LifeScience Technologies #A21244) for 30 min on ice. After washing in cold PBS, the cells were assessed in a LSRII flow cytometer (BD Biosciences). In the same experiment, the cell culture media were spun down to collect the supernatants for HMGB1 detection by an ELISA kit (Catalog #ST51011, IBL International GmbH), according to the manufacture's instruction.

[1] = Pt drug loading of MSNP/silicasome (EE %, LC %) by ICP-MS/ICP-OES; assay type: physicochemical; conditions: DACHPt incubated with bare MSNP, Pt:MSNP 1:5 w/w
Protocol: In various embodiments the silica nanoparticles are loaded with platinum-based drugs using a combination of coordination and electrostatic interactions. Since the silanol group density on the silica nanoparticle surface(s) (e.g., pore surfaces) an important role in the surface binding of the activated platinum compound (e.g., DACHPt) (see FIG. 2), it is desirable to control the pH during drug loading. Thus, the loading efficiency and capacity was optimized through control of. pH, incubation time, the soaking process, and variation of the drug/particle ratio, etc. Thus, for example, 20 mg MSNP resuspend in 1 mL HEPES buffer (0.1 M, pH 8.5) was mixed with DACHPt complex (4 mg Pt, equal to 8 mg OX). The mixture was sonicated in water bath sonication for 10 mins and then spun down at 15 K rpm for 10 mins. Non-bound Pt in the supernatant, as detected by ICP-OES was used to determine the loading capacity [%=(total Pt—Pt in supernatant)/amount of MSNP*100} and loading efficiency [%=(total Pt—Pt in supernatant)/total Pt*100].
Sixty-five nm bare MSNPs were synthesized at 18 L scale and purified by extensive acidic ethanol washing to remove the CTAC detergent, as reported previously^[4b]. In order to determine the optimal loading condition, we experimented with multiple rounds of drug loading to find the optimal pH, incubation time, sonication condition, and particle/drug feed ratio, etc. Details of the protocol optimization appear online (FIG. 8). In the case of DACHPt loading, purified MSNP (20 mg) from ethanol stock solution was spun at 15,000 rpm for 15 min, and resuspend in 1 mL HEPES buffer (200 mM, pH 8.5). The MSNP suspension was spun down and resuspend in 0.5 mL HEPES buffer (200 mM, pH 8.5). Then, 160 μL DACHPt solution (25 mg/mL, e.q. Pt) and 340 μL pure H2O were added to the MNSP suspension (40 mg/mL, 0.5 mL). The mixture was sonicated for 10 min. In a sonication water bath. The DACHPt-laden MSNPs were spun down at 15,000 rpm for 12 min, followed by collecting the supernatant for Pt elemental analysis by ICP-MS. […]

KPC cells [2] = experiment: Vaccination study with chemo-induced dying KPC cells, re-challenge on contralateral side; conditions: for infiltration by CD8^+ T-cells / number of Foxp3^+ regulatory T cell (Treg) / increase in CD8^+/Tregs cell ratio compared to PBS control: IHC of contralateral tumors; for increase in CD8^+/Tregs cell ratio compared to PBS control: day 26; for tumor growth on the contralateral side: vaccination with drug-treated dying KPC cells, p<0.05
Protocol: In order to determine whether these in vitro ICD markers actually represent an in vivo immunogenic effect as specified by a consensus ICD document^[26], we also performed a vaccination study in a syngeneic KPC animal model. Suspensions of dying tumor cells, generated by oxaliplatin or DACHPt treatment for 24 h, were subcutaneously injected on 2 occasions (7 days apart) in left flank of immunocompetent B6129SF1/J mice. This was followed by tumor re-challenge on the contralateral side using untreated KPC cells (FIG. 4, panel C).
Moreover, we also validated the ICD effect of DACHPt in a vaccination experiment, using a published protocol^[26]. Briefly, eight million KPC cells were seeded in a tissue culture dish. After cellular attachment, DACHPt or free oxaliplatin (500 μM) were added for 24 h. Cells were collected and washed before being resuspended in 0.8 mL cold PBS. For vaccination, each mouse received subcutaneous injection (SC) of a 100 μL suspension of chemo-treated cells in the right flank. Control animals received PBS only. The vaccination was repeated after 7 days. Fourteen days after the 1st vaccination, the same mice received the SC injection of healthy KPC cells (1×10^6 cells) in the contralateral side. Tumor growth was measured by a digital caliper every 2-3 days. At the conclusion of the vaccination experiment (Day 26), animals were sacrificed and the tumors collected for IHC immunophenotyping of CD8^+ T cells and FoxP3^+ Treg cells. Primary antibodies to CD8 (#14-0808-82, 1:100) and FoxP3 (#13-5773-82, 1:200) were purchased from ThermoFisher. […] The slides were scanned and images were assessed by using Aperio ImageScope software (Leica).

orthotopic KPC tumor [3] = experiment: Survival study in orthotopic KPC model w/wo anti-PD-1; assay type: in vivo, mice; conditions: agent alone; Pt 2 mg/kg IV, anti-PD-1 100 μg IP; Kaplan-Meier, Log Rank
Protocol: Kaplan-Meier plots were used to display the survival rate of the different animal groups (n=5-7, *p<0.05, Log Rank test).
Tumor-bearing mice were randomly assigned into 6 groups (n=5-7) and received IV injection of Pt drug formulations twice per week as designed in FIG. 6. Anti-PD-1 antibody was injected at 100 μg/animal intraperitoneally two days later after each Pt chemo injection. To assess survival rate, animals were monitored daily up to the stage of spontaneous death or approaching moribund status based on the criteria of extensive abdominal ascites, severe dehydration, significant weight loss (>20%), extreme weakness or inactivity^[4, 21, 30] The survival data were plotted as Kaplan-Meier curves, followed by statistical analysis by Log Rank testing (Mantel-Cox), using GraphPad Prism 7.00 software.

orthotopic KPC tumor [4] = experiment: Anti-PDAC efficacy in orthotopic KPC model; assay type: in vivo, B6129SF1/J mice; conditions: Pt 2 mg/kg IV every 3 days, 3 administrations, day 17
Protocol: An efficacy study was performed by IV injection of the silicasome carrier eight days after orthotopic KPC implantation in the pancreas of B6129SF1/J mice (FIG. 3, panel D). This corresponds to beginning the treatment at a primary tumor size of 5-10 mm in the absence of macro-metastases^[21]. IV injections were repeated every 3 days for a total of 3 repeats. The control groups included animals receiving IV saline or free oxaliplatin. The tumor growth at the primary and metastatic sites was followed by IVIS bioluminescence imaging up to conclusion of the experiment on day 17 (FIG. 3, panel D, right).
KPC-luc cells (˜1×10^6) were orthotopically injected into the pancreas in mice. […] The control includes saline as well as free oxaliplatin. This dose arrangement is in agreement with the literature^[27]. Tumor-bearing mice received IV injection of the indicated therapy every 3 days for a total of 3 administrations. Before animal sacrifice (72 h post the last IV injection), the mice received intraperitoneal injection of D-luciferin, followed by ex vivo bioluminescence imaging using an IVIS imaging system. […] The H&E slides for toxicity assessment were read in a blinded fashion by an experienced veterinary pathologist.

[5] = Safety assessment by H&E histology of bone marrow and major organs (efficacy study)
Protocol: KPC-luc cells (˜1×10^6) were orthotopically injected into the pancreas in mice. […] The control includes saline as well as free oxaliplatin. […] Tumor-bearing mice received IV injection of the indicated therapy every 3 days for a total of 3 administrations. Before animal sacrifice (72 h post the last IV injection), the mice received intraperitoneal injection of D-luciferin, followed by ex vivo bioluminescence imaging using an IVIS imaging system. Primary tumor and major organs (e.g. sternum, heart, liver, spleen, lung and kidneys) were harvested and fixed in 10% formalin, followed by paraffin embedding and sectioning to provide 4 μm slices for histological analysis in the UCLA Translational Pathology Core Laboratory (TPCL). H&E staining was performed to look at the pathological abnormality in mice receiving different treatments. The H&E slides for toxicity assessment were read in a blinded fashion by an experienced veterinary pathologist.

[6] = PK study, plasma Pt by ICP-MS after single IV injection; conditions: Pt dose 4.95 mg/kg, one-compartment model
Protocol: IV injection of non-encapsulated oxaliplatin (at identical Pt molar dose) served as the free drug control because free DACHPt leads to drug precipitates when interacting with Cl ions in the blood^[7b]. Blood collection was performed at 5 mins, 3 h, 6 h, 24 h and 48 h after IV injection, followed by ICP-MS quantification.
The PK study was performed on 10-12-week-old healthy female B6129SF1/J mice. […] After separation of the plasma fraction, the plasma samples were digested with HCl:HNO3 3:1, v/v) in a hot-block, before replenishment in 2% HNO3 for ICP-MS analysis of the Pt content. The PK data were analyzed by PKSolver software, using a one-compartment model^[4].

KPC cells [7] = experiment: Cytotoxicity MTS assay in KPC cells; conditions: 500 μM, 24 h
Protocol: The DACHPt silicasome was tested in a list of cancer cell lines to determine the in vitro killing effect, using a MTS assay. […] The MTS assay was conducted with free DACHPt and oxaliplatin as controls. Data are expressed as mean±SD. n=3.
The MTS assay was performed at 24 h after the treatment with oxaliplatin or DACHPt in KPC cells. Data represents mean±SD, n=3.
Cytotoxicity testing of free Pt drugs or drug-laden silicasomes was performed by using a standard MTS assay (CellTiter 96© AQueous One Solution Cell Proliferation Assay, Promega). PDAC cells were plated at a density of 5×10^3 cells per well in a 96-well plate and cultured for 24 h before the medium was replaced with fresh medium containing free OX, free DACHPt or DACHPt laden silicasome at indicated concentrations. Non-treated cells were used as control. After treatment for 48 h, the medium was replaced with 100 μL of fresh medium containing MTS solution (5:1, v/v medium/CellTiter 96© Aqueous stock solution), and the cells were further cultured at 37° C. for 1 h. The absorbance of the culture wells at 490 nm was recorded by a microplate reader (M5e, Molecular Device, USA). Wells receiving the MTS solution without cells were used as blank. The relative cell viability (%) is [(the absorption of treated well−blank)/(the absorption of control well−blank)]×100%.

## NC1CCCCC1N.[Pt+2] (stereo not shown) [DACHPt, (1,2-diaminocyclohexane)platinum(II)]
Calreticulin (CRT)
  cell surface fluorescence of CRT: significant increase
HMGB1
  HMGB1 release into the supernatant: increase of released HMGB1
[1]; neutral pH 7.4
  encapsulation efficiency (EE %): 60%
[1]; pH 8.5, before lipid coating
  encapsulation efficiency (EE %): ~75%
[1]; weak acidic pH 5.5
  encapsulation efficiency (EE %): 25%
KPC cells [2]
  infiltration by CD8^+ T-cells: increase in infiltration
  number of Foxp3^+ regulatory T cell (Treg): reduced number
  increase in CD8^+/Tregs cell ratio compared to PBS control: 6 fold
  tumor growth on the contralateral side: growth retardation
KPC cells [2]; vaccination study
  tumor free mice (out of 6): 1

## O=C1[O][Pt]2([NH][C@@H]3CCCC[C@H]3[NH]2)[O]C1=O [oxaliplatin]
Orthotopic KPC tumor [3]
  survival outcome: No obvious benefit
Calreticulin (CRT)
  cell surface fluorescence of CRT: significant increase
Orthotopic KPC tumor [4]
  tumor inhibition (primary tumor weight): ~5%
HMGB1
  HMGB1 release into the supernatant: increase of released HMGB1
KPC cells [2]
  infiltration by CD8^+ T-cells: increase in infiltration
  number of Foxp3^+ regulatory T cell (Treg): reduced number
  increase in CD8^+/Tregs cell ratio compared to PBS control: 4.8 fold
  tumor growth on the contralateral side: growth retardation
[5]
  histology of major organs (liver, spleen, kidney, lung, heart): No major histological abnormalities
  reduction in cellularity of the hemopoetic cells in the bone marrow: > 50%
[6]
  circulatory half-life (t1/2): 21 ± 10.2 min
KPC cells [7]
  killing of cells / compromised cell viability (MTS): 70%
